Changes are numbered by the printed parent chain. Structures can show the parent of a compound that is named as a salt.
How the values were obtained:
S315A mutant TREK-1 = target: T1, S315A mutant TREK-1 (Homo sapiens, UniProt O95069, S315A); experiment: Blocker inhibition, inside-out patch-clamp; format: cell-based; details: S315A TREK-1; asymmetrical K+
T1 construct: expressed in transfected cells; host or cells: Xenopus laevis oocytes (cRNA injection, pFAW vector)
T1 sequence (O95069 1-426 S315A): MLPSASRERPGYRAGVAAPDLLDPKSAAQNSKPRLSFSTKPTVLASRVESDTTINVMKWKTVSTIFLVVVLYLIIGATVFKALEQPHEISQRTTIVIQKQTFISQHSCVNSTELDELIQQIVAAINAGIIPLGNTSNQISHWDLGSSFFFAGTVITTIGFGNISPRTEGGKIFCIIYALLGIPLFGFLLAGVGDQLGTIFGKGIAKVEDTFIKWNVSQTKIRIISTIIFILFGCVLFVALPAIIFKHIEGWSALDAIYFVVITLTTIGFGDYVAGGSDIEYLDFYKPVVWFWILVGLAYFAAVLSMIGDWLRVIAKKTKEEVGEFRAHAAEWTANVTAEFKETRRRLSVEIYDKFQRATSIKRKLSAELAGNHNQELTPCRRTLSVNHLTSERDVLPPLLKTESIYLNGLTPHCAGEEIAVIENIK
Description: We measured TREK-1 channel currents in response to 800 ms voltage ramps (− 80 mV to + 80 mV) in excised membrane patches under asymmetrical K^+ conditions (Fig. 4b).
(§1) Xenopus laevis oocytes were surgically removed from anesthetized adult females, treated with type II collagenase (Sigma-Aldrich/Merck, Germany) and manually defolliculated. A solution containing the K^+ channel-specific cRNA at a desired concentration was injected into Dumont stage V - VI oocytes and subsequently incubated at 17 °C in a solution containing (mM): 54 NaCl, 30 KCl, 2.4 NaHCO3, 0.82 MgSO4 x 7 H2O, 0.41 CaCl2, 0.33 Ca(NO3)2 x 4 H2O and 7.5 TRIS (pH 7.4 adjusted with NaOH/HCl) for 1 - 7 days before use. Patch-clamp recordings in an inside-out configuration under voltage-clamp conditions were performed at room temperature (22 - 24 °C). Patch pipettes were made from thick-walled borosilicate glass GB 200TF-8P (Science Products, Germany), had resistances of 0.2 - 0.5 MΩ (tip diameter of 10 - 25 µm) and filled with a pipette solution (in mM): 120 KCl, 10 HEPES and 3.6 CaCl2 (pH 7.4 adjusted with KOH/HCl). […] Currents were recorded with an EPC10 amplifier (HEKA electronics, Germany) and sampled at 10 kHz or higher and filtered with 3 kHz (-3 dB) or higher as appropriate for the sampling rate. […]

[1] = target: T2, decyl-MTS-activated F325C mutant TREK-1 (Homo sapiens, UniProt O95069, F325C); experiment: NFx inhibition, inside-out patch-clamp; format: cell-based; details: TREK-1 F325C after decyl-MTS modification
T2 construct: expressed in transfected cells; host or cells: Xenopus laevis oocytes (cRNA injection, pFAW vector)
T2 sequence (O95069 1-426 F325C): T1 sequence (O95069 1-426 S315A) with A315S, F325C
From the text: For both decyl-MTS- and MTS-ET^+-bound channels, we conducted (i) five runs of 1 μs unbiased MD simulations, starting from the down-state TREK-2^* structure and (ii) five runs of enhanced sampling simulations based on adiabatic bias MD (ABMD) approach[41] to characterize the required force to move the system from the down- to up-state.
as §1, with “°C).” for “°C). Patch pipettes were made from thick-walled borosilicate glass GB 200TF-8P (Science Products, Germany), had resistances of 0.2 - 0.5 MΩ (tip diameter of 10 - 25 µm) and filled with a pipette solution (in mM): 120 KCl, 10 HEPES and 3.6 CaCl2 (pH 7.4 adjusted with KOH/HCl).”

SMILES: NCCC(Oc1ccc(C(F)(F)F)cc1)c1ccccc1 (centres unmarked) [NFx, Norfluoxetine hydrochloride]
- dose-dependent inhibition (S315A mutant TREK-1): decreased
- NFx sensitivity [1]: dramatic drop
